Test systems include 786-0; ACHN; DMS-273; HOP-18; HOP-62; HT-29; K562; M19-MEL; NCI-H23; OVCAR-4; SF-268; SF-539; SK-MEL-28; SN12C; SNB-19; SNB-75; SNB-78.
Holding throughout (assay): growth of human tumour cells (NCI), 48 h

We go through twelve compounds from ChEMBL document CHEMBL1201862, “PubChem BioAssay data set” (2004).

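Cultured in 96-well plates, cells were exposed to test compound for 48 hours across five concentrations. Here, GI50 denotes the concentration required for 50% inhibition of growth.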 Calls of active or inactive are those of the source. No stated cut-off is given here; in the data, active = GI50 up to about 1.1 µM and inactive = higher.

For `COC(=O)C(=O)C(C(=O)C(=O)Nc1ccccc1C(N)=O)c1nc2ccc([N+](=O)[O-])cc2nc1O` (stereo unspecified), the GI50 in the experiment on 786-0, in the experiment with ACHN, with DMS-273, with HOP-18, in the experiment with HOP-62 and in the experiment on HT-29 was > 100 µM (inactive) each time. Moreover, the GI50 in the experiment with K562, in the experiment with M19-MEL, with NCI-H23, in the experiment on OVCAR-4, in the experiment with SF-268 and in the experiment on SF-539 was > 100 µM (inactive) throughout. Further, the GI50 in the experiment on SK-MEL-28, in the experiment on SN12C, in the experiment on SNB-19, in the experiment with SNB-75 and in the experiment on SNB-78 was > 100 µM (inactive) throughout.

In the case of `CSc1nc(NC2OCC(OC(C)=O)C(OC(C)=O)C2OC(C)=O)c(/N=C(\C)C(C)=O)c(=O)n1C` (stereo unspecified), the GI50 with 786-0, with ACHN, with DMS-273, in the experiment on HOP-18, in the experiment with HOP-62 and with HT-29 was > 100 µM (inactive) in each case. Moreover, the GI50 in the experiment on K562, in the experiment on M19-MEL, in the experiment on NCI-H23, with OVCAR-4, in the experiment on SF-539 and with SN12C was > 100 µM (inactive) in each case. For the same compound, the GI50 in the experiment with SNB-19, in the experiment on SNB-75 and in the experiment with SNB-78 was > 100 µM (inactive) each time.

For the compound `CN(C)CC1CCCCCCCCCCCCC(CN(C)C)C1=O` (stereo unspecified), the GI50 in the experiment on 786-0 was 10.1 µM (inactive); in the experiment on ACHN, 16.2 µM (inactive); in the experiment with DMS-273 it was 10.4 µM (inactive); in the experiment on HOP-18, 16.2 µM (inactive); in the experiment on HOP-62, 16.4 µM (inactive); with HT-29, 5.66 µM (inactive). For the same compound, the GI50 in the experiment on M19-MEL is 12.6 µM (inactive); with NCI-H23, 17.7 µM (inactive); in the experiment with OVCAR-4, 15.7 µM (inactive); in the experiment on SF-268 it was 12.7 µM (inactive); with SF-539, 15.2 µM (inactive); with SK-MEL-28, 13.6 µM (inactive). In addition, the GI50 was 15.2 µM (inactive) in the experiment with SN12C, 17.5 µM (inactive) in the experiment on SNB-19, 11.9 µM (inactive) in the experiment with SNB-75 and 13.5 µM (inactive) in the experiment with SNB-78.

`Cc1c2ccncc2c(C)c2c1[nH]c1ccc(OC(C)C)cc12`: the GI50 was 1.19 µM (inactive) in the experiment on 786-0; 1.29 µM (inactive) with ACHN; 0.681 µM (active) in the experiment with DMS-273; 0.318 µM (active) in the experiment with HOP-18; 1.35 µM (inactive) in the experiment on HOP-62; 1.32 µM (inactive) in the experiment with HT-29. Further, the GI50 is 1.13 µM (inactive) with K562; 1.71 µM (inactive) in the experiment on M19-MEL; 1.53 µM (inactive) in the experiment with NCI-H23; 1.71 µM (inactive) in the experiment with OVCAR-4; 1.43 µM (inactive) in the experiment with SF-268; 1.82 µM (inactive) with SF-539. The GI50 in the experiment with SK-MEL-28 is 1.66 µM (inactive); with SN12C, 1.06 µM (active); in the experiment on SNB-19, 1.59 µM (inactive); in the experiment with SNB-75, 1.83 µM (inactive); in the experiment on SNB-78, 2.89 µM (inactive).

Consider `Nc1c(C(=O)NC23CC4CC(CC(C4)C2)C3)[n+]([O-])c2ccccc2[n+]1[O-]`, for which the GI50 with 786-0, in the experiment on ACHN, in the experiment with DMS-273, in the experiment with HOP-18, with HOP-62 and in the experiment on HT-29 was > 100 µM (inactive) each time. In addition, the GI50 in the experiment with K562, with M19-MEL, in the experiment with NCI-H23, in the experiment with OVCAR-4, in the experiment with SF-268 and in the experiment with SF-539 was > 100 µM (inactive) throughout. Moreover, the GI50 in the experiment with SK-MEL-28, in the experiment on SN12C, with SNB-19, in the experiment with SNB-75 and in the experiment on SNB-78 was > 100 µM (inactive) in each case.

On to `Cn1cnc(S[C@H]2[C@H]3C(=O)C=C4S[C@H]5C[C@]42C2=C(N5)C(=O)c4[nH]cc5c4C2=[N+]3CC5)c1C[C@H](N)C(=O)O`, for which the GI50 with 786-0 is 19 µM (inactive); in the experiment on ACHN, 14.8 µM (inactive); in the experiment on DMS-273, 12.7 µM (inactive); in the experiment with HOP-18, 52.1 µM (inactive); in the experiment with HT-29, 4.09 µM (inactive); in the experiment with K562, 17.3 µM (inactive). In addition, the GI50 in the experiment on M19-MEL was 8.73 µM (inactive); in the experiment with NCI-H23, 10.7 µM (inactive); in the experiment with OVCAR-4, 17.1 µM (inactive); in the experiment with SF-268, 12.1 µM (inactive); in the experiment on SF-539, 16.5 µM (inactive); in the experiment with SK-MEL-28, 16.8 µM (inactive). Besides, the GI50 with SN12C was 3.56 µM (inactive); with SNB-19, 17.6 µM (inactive); in the experiment with SNB-75, 18.7 µM (inactive); with SNB-78, 20.9 µM (inactive).

For `COC(=O)C12CC3CC(C1)CC(C(=O)OC)(C3)C2`, the GI50 with 786-0, with ACHN, in the experiment with DMS-273, in the experiment on HOP-18, in the experiment on HOP-62 and in the experiment on HT-29 was > 100 µM (inactive) each time. For the same compound, the GI50 with M19-MEL, with NCI-H23, in the experiment on OVCAR-4, in the experiment with SF-268, with SF-539 and with SK-MEL-28 was > 100 µM (inactive) in each case. For the same compound, the GI50 in the experiment on SN12C, with SNB-19, with SNB-75 and with SNB-78 was > 100 µM (inactive) in each case.

Regarding `COc1cc(-c2nnc3n2NC=C(C(=O)O)S3)cc(OC)c1OC`, the GI50 with 786-0 is > 58.7 µM (inactive); in the experiment on ACHN, > 100 µM (inactive); in the experiment with DMS-273, > 60.3 µM (inactive); in the experiment on HOP-18 it was > 70.1 µM (inactive); with HOP-62, > 100 µM (inactive); in the experiment on HT-29, > 100 µM (inactive). Moreover, the GI50 in the experiment with K562 was > 43.1 µM (inactive); in the experiment on M19-MEL it was > 69.3 µM (inactive); in the experiment on NCI-H23, > 100 µM (inactive); with OVCAR-4 it was > 62.2 µM (inactive); with SF-268, > 76.9 µM (inactive); in the experiment with SF-539, > 42.8 µM (inactive). Moreover, the GI50 in the experiment with SK-MEL-28 was > 100 µM (inactive); in the experiment with SN12C, > 93.1 µM (inactive); in the experiment on SNB-19, > 100 µM (inactive); with SNB-75, > 100 µM (inactive); in the experiment on SNB-78, > 100 µM (inactive).

Regarding `COc1ccc(-c2cc(=O)c3c(O)c(OC)c(O)c(OC)c3o2)cc1OC`, the GI50 in the experiment on 786-0 is > 100 µM (inactive); with ACHN, 33 µM (inactive); with DMS-273 it was 54.1 µM (inactive); in the experiment on HOP-18, 54.3 µM (inactive); in the experiment on HOP-62, 44.2 µM (inactive); in the experiment on HT-29, > 100 µM (inactive). Also, the GI50 is 45.9 µM (inactive) with K562; > 100 µM (inactive) in the experiment with M19-MEL; > 100 µM (inactive) in the experiment on NCI-H23; > 100 µM (inactive) in the experiment on OVCAR-4; 90.2 µM (inactive) with SF-268; 46.2 µM (inactive) in the experiment on SF-539. In addition, the GI50 in the experiment with SK-MEL-28 was > 100 µM (inactive); in the experiment with SN12C it was 43.4 µM (inactive); in the experiment with SNB-19, > 100 µM (inactive); in the experiment with SNB-75, 21.8 µM (inactive); with SNB-78, 42 µM (inactive).

Consider `Cc1ccccc1C(=O)Oc1ccc(Oc2ccccc2)cc1`, for which the GI50 in the experiment on 786-0 is > 100 µM (inactive); in the experiment with ACHN, 28.4 µM (inactive); with DMS-273, > 100 µM (inactive); with HOP-18 it was > 100 µM (inactive); with HOP-62 it was > 100 µM (inactive); with HT-29, > 100 µM (inactive). Moreover, the GI50 in the experiment with K562, in the experiment on M19-MEL, with NCI-H23, in the experiment on OVCAR-4, with SF-268 and in the experiment with SF-539 was > 100 µM (inactive) in each case. Also, the GI50 with SN12C, in the experiment with SNB-19, with SNB-75 and with SNB-78 was > 100 µM (inactive) throughout.

Consider `C=CCn1cc(C(=O)NC(=O)NCCCCCOC(=O)CCCCCCCCCCC(=O)OCCCCCNC(=O)NC(=O)c2cn(CC=C)c(=O)n(C)c2=O)c(=O)n(C)c1=O`, for which the GI50 in the experiment with 786-0 was > 100 µM (inactive); in the experiment with ACHN, > 100 µM (inactive); in the experiment with DMS-273 it was > 100 µM (inactive); with HOP-18 it was 71.8 µM (inactive); in the experiment with HOP-62, > 100 µM (inactive); with HT-29, > 100 µM (inactive). For the same compound, the GI50 with K562, with M19-MEL, with NCI-H23, with SF-268, with SF-539 and in the experiment on SK-MEL-28 was > 100 µM (inactive) each time. For the same compound, the GI50 with SN12C, in the experiment with SNB-19, in the experiment with SNB-75 and in the experiment on SNB-78 was > 100 µM (inactive) throughout.

For the compound `C1=CC2CCC1CN2CCC1CNc2ccccc21` (stereo unspecified), the GI50 in the experiment on 786-0, in the experiment on ACHN, with DMS-273, with HOP-18, in the experiment with HOP-62 and in the experiment on HT-29 was > 100 µM (inactive) throughout. The GI50 with K562, with M19-MEL, with NCI-H23, in the experiment with SF-268, with SF-539 and in the experiment on SK-MEL-28 was > 100 µM (inactive) in each case. Further, the GI50 in the experiment on SN12C, with SNB-19, in the experiment with SNB-75 and with SNB-78 was > 100 µM (inactive) each time.
